Measurements published in patent US8178534B2, “cMET inhibitors” (Takeda Pharmaceutical Company Limited, priority 2008, dated 2012).
Where a name gives a salt, the structure may show the parent alone.

What was measured:
[1] = target: T1, cMET enzyme (amino acids 1023-1360) (Homo sapiens, UniProt P08581); test: Determination of inhibition of cMET (capillary electrophoresis, phosphorylated peptide product); assay type: biochemical; details: 1.2 nM cMET, 50 μM ATP, 2 μM FL-2 peptide, 2 hours room temperature
T1 construct: The cMET enzyme (amino acids 1023-1360) nominally at 24 μM was held at −80° C. until use; His tag (N, cleaved yes); made in house; host or cells: Sf9 cells
Method: The inhibitory property of a compound relative to cMET catalysis was determined by use of capillary electrophoresis with fluorescence quantification of a phosphorylated peptide product for cMET. The cMET enzyme (amino acids 1023-1360) nominally at 24 μM was held at −80° C. until use, in a buffer containing 25 mM Tris-HCl pH 8.5, 150 mM NaCl, 3 mM DTT and 10% glycerol. […] Following purification, the tag was removed and enzyme concentrated. […] To activate the enzyme fully, frozen cMET was thawed quickly and activated with the addition of assay buffer (50 mM HEPES pH 7.5, 10 mM NaCl, 10 mM MgCl2, 0.01% Brij® 35), 1.25 mM ATP, 5 mM MgCl2 and 5 mM DTT at a cMET concentration of 2.4 μM followed by a 30 minute incubation at room temperature. […] Next, cMET enzyme (1.2 nM final) was added and the system incubated at room temperature for 20 minutes. Catalysis was initiated by the addition of ATP (50 μM final). Assays were incubated at room temperature for 2 hours then quenched by the addition of EDTA. Phosphorylated peptide product was quantified by monitoring fluorescence during capillary electrophoresis with Caliper LifeSciences LabChip 3000 under the following settings: base pressure=−0.1 psi, screen pressure=−1.2 psi, downstream voltage=−500 V, upstream voltage=−2300 V, chip type=TC372. The elution buffer was identical to the assay buffer except for the absence of DTT, FL-2 and ATP and the addition of 0.1% coating reagent (Caliper). […] Peak height was quantified and used to determine enzyme velocities.
IC50 values were calculated by non-linear least squares curve fitting of the standard IC50 equation to background-corrected cMET velocity versus compound concentration.

MKN45 = test: Inhibition of cell viability (MTS), MKN45; assay type: cell-based; details: 96 hours incubation
Method: (§1) Cells were maintained at 37° C. in a humidified atmosphere containing 5%-8% CO2 following the instructions of the supplier (American Type Culture Collection (Rockville, Md.)). Inhibition of cell viability was determined for a panel of tumor cell lines (MKN45, EBC1 and A549), using the soluble tetrazolium salt, MTS (Promega, Madison, Wis.). Cells were seeded at 2,000-7,500 cells/well in 96-well tissue culture plates and were allowed to attach for approximately 24 hours prior to addition of compounds or DMSO vehicle. […] Cells were treated in duplicate with test compounds. Compounds were serially diluted (1:2.5) from column 1 to 11 and column 12 contained DMSO vehicle. Compounds were diluted into cell growth medium then compound solution was added to cells. Equal amounts of DMSO were added to cells (final concentration is 0.5%). After background correction and normalization against DMSO-treated cells, EC50 values were calculated using non-linear curve-fitting of the cell viability as a function of compound concentration. The MKN45 and EBC1 cell lines contain high levels of phospho-Met and are dependent on cMET for proliferation, whereas the A549 line is used as negative control.
(§2) EC50 values may be calculated by non-linear curve fitting of the compound concentrations and fluorescence intensities to the standard EC50 equation.

EBC1 = test: Inhibition of cell viability (MTS), EBC1; assay type: cell-based; details: 96 hours incubation
Method: as §1, §2

A549 = test: Inhibition of cell viability (MTS), A549 (negative control line); assay type: cell-based; details: A549 cells (negative control), 96 hours incubation
Method: as §1, §2

[2] = Homo sapiens, MKN-45, 96 h, MKN45 cells
[3] = Homo sapiens, EBC-1, 96 h, EBC1 cells
[4] = Homo sapiens, MKN-45, MKN45 cells
[5] = Homo sapiens, EBC-1, EBC1 cells

T1 sequence (P08581 1023-1360): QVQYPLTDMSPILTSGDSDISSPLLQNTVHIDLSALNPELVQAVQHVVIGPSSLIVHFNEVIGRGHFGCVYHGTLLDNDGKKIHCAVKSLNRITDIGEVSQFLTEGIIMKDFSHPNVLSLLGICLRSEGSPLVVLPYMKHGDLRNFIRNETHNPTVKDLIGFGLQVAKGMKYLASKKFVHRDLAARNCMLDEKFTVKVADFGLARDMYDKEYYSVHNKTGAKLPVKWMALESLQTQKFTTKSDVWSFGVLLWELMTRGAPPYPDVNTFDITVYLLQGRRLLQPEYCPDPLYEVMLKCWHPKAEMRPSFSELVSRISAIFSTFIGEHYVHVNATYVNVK

SMILES	IC50 [1] [nM]	EC50 (MKN45; [2]) [nM]	EC50 (A549; Homo sapiens, A549, 96 h) [nM]	EC50 (MKN45; MKN45 cells) [nM]	EC50 (A549) [nM]	EC50 (EBC1; [3]) [nM]	EC50 (MKN45; [4]) [nM]	EC50 (EBC1; [5]) [nM]	EC50 (A549; Homo sapiens) [nM]	EC50 (EBC1; EBC1 cells) [nM]
O=C(NC1CC1)c1ccc2nnc(Sc3ccc4nc(NC(=O)C5CC5)cn4n3)n2c1 [Compound 34, 3-(2-(cyclopropanecarboxamido)imidazo[1,2-b]pyridazin-6-ylthio)-N-cyclopropyl-[1,2,4]triazolo[4,3-a]pyridine-6-carboxamide]	60 to 100	> 630	> 50000			> 200				
O=C(O)c1ccc2nnc(Sc3ccc4nc(NC(=O)C5CC5)cn4n3)n2c1 [Compound 33, 3-(2-(cyclopropanecarboxamido)imidazo[1,2-b]pyridazin-6-ylthio)-[1,2,4]triazolo[4,3-a]pyridine-6-carboxylic acid]	> 100						> 630	> 200	> 50000	
COc1cncc(-c2ccc3nnn(Cc4ccc5nc(NC(=O)C6CC6)cn5n4)c3c2)c1 [Compound 19]	60 to 100	250 to 630	> 19500			100 to 199				
Cc1n[nH]c(C)c1-c1ccc2nnn(Cc3ccc4nc(NC(=O)C5CC5)cn4n3)c2c1 [Compound 20]	60 to 100	250 to 630	> 50000			> 200				
O=C(Nc1cn2nc(Sc3nnc4ccccn34)ccc2n1)C1CC1 [3 (TFA Salt), N-(6-([1,2,4]triazolo[4,3-a]pyridin-3-ylthio)imidazo[1,2-b]pyridazin-2-yl)cyclopropanecarboxamide]	> 100			250 to 630	8000 to 25000					100 to 199
O=C(NCCO)Nc1cn2nc(Sc3nnc4ccc(-c5cccc(F)c5)cn34)ccc2n1 [Compound 27, 1-(6-(6-(3-fluorophenyl)-[1,2,4]triazolo[4,3-a]pyridin-3-ylthio)imidazo[1,2-b]pyridazin-2-yl)-3-(2-hydroxyethyl)urea]	< 30						< 100	35 to 99	> 50000	
COCCn1cc(-c2ccc3nnc(Sc4ccc5nc(NC(=O)C6CC6)cn5n4)n3c2)cn1 [Compound 31, N-(6-(6-(1-(2-methoxyethyl)-1H-pyrazol-4-yl)-[1,2,4]triazolo[4,3-a]pyridin-3-ylthio)imidazo[1,2-b]pyridazin-2-yl)cyclopropanecarboxamide]	30 to 59	< 100	> 50000			< 35				
CC(C)(O)c1ccc2nnc(Sc3ccc4nc(NC(=O)C5CC5)cn4n3)n2c1 [Compound 40, N-(6-(6-(2-hydroxypropan-2-yl)-[1,2,4]triazolo[4,3-a]pyridin-3-ylthio)imidazo[1,2-b]pyridazin-2-yl)cyclopropanecarboxamide]	> 100						> 630	> 200	> 50000	
CC(c1ccc2nc(NC(=O)C3CC3)cn2n1)c1nnc2ccc(-c3cnn(C)c3)cn12 (centres unmarked) [49 (HCl Salt), N-(6-(1-(6-(1-methyl-1H-pyrazol-4-yl)-[1,2,4]triazolo[4,3-a]pyridin-3-yl)ethyl)imidazo[1,2-b]pyridazin-2-yl)cyclopropanecarboxamide]	< 30	30 to 59			8000 to 25000	< 30				
O=C(Nc1cn2nc(Cn3nnc4ccc(-c5cnn(C[C@H](O)CO)c5)cc43)ccc2n1)C1CC1 [Compound 22]	60 to 100	> 630	> 50000			> 200				
O=C(Nc1cn2nc(Sc3nnc4ccc(-c5cccc(F)c5)cn34)ccc2n1)C1CC1 [Compound 44, N-(6-(6-(3-fluorophenyl)-[1,2,4]triazolo[4,3-a]pyridin-3-ylthio)imidazo[1,2-b]pyridazin-2-yl)cyclopropanecarboxamide]	< 30	< 100	600 to 1600			< 35				

The next lines start with results.

IC50 [1] [nM]	EC50 (MKN45; [2]) [nM]	EC50 (A549; Homo sapiens, A549, 96 h) [nM]	EC50 (MKN45; MKN45 cells) [nM]	EC50 (A549) [nM]	SMILES	EC50 (EBC1; [3]) [nM]	EC50 (MKN45; [4]) [nM]	EC50 (EBC1; [5]) [nM]	EC50 (A549; Homo sapiens) [nM]	EC50 (EBC1; EBC1 cells) [nM]
30 to 59	< 30	> 50000			O=C(Nc1cn2nc(C(F)(F)c3nnc4ccc(-c5cccnc5)cn34)ccc2n1)C1CC1 [Compound 78, N-(6-(difluoro(6-(pyridin-3-yl)-[1,2,4]triazolo[4,3-a]pyridin-3-yl)methyl)imidazo[1,2-b]pyridazin-2-yl)cyclopropanecarboxamide]	< 30				
< 30	< 30	> 50000			N#Cc1ccc(-c2ccc3nnc(C(F)(F)c4ccc5nc(NC(=O)C6CC6)cn5n4)n3c2)cc1 [Compound 83, N-(6-((6-(4-cyanophenyl)-[1,2,4]triazolo[4,3-a]pyridin-3-yl)difluoromethyl)imidazo[1,2-b]pyridazin-2-yl)cyclopropanecarboxamide]	< 30				
< 30	30 to 59	> 50000			CNC(=O)c1ccc(-c2ccc3nnc(C(C)c4ccc5nc(NC(=O)C6CC6)cn5n4)n3c2)cc1 (centres unmarked) [Compound 68, 4-(3-(1-(2-(cyclopropanecarboxamido)imidazo[1,2-b]pyridazin-6-yl)ethyl)-[1,2,4]triazolo[4,3-a]pyridin-6-yl)-N-methylbenzamide]	30 to 59				
< 30	< 30	8000 to 25000			O=C(Nc1cn2nc(C(F)(F)c3nnc4ccc(-c5ccc(F)cc5)cn34)ccc2n1)C1CC1 [Compound 74, N-(6-(difluoro(6-(4-fluorophenyl)-[1,2,4]triazolo[4,3-a]pyridin-3-yl)methyl)imidazo[1,2-b]pyridazin-2-yl)cyclopropanecarboxamide]	< 30				
> 100	> 100	> 50000			CC(c1ccc2nc(NC(=O)C3CC3)cn2n1)c1nnc2ccccn12 (centres unmarked) [Compound 52, N-(6-(1-([1,2,4]triazolo[4,3-a]pyridin-3-yl)ethyl)imidazo[1,2-b]pyridazin-2-yl)cyclopropanecarboxamide]	> 100				
< 30	< 30	> 50000			CNC(=O)c1ccc(-c2ccc3nnc(C(C)c4ccc5nc(NC(=O)C6CC6)cn5n4)n3c2)cc1F (centres unmarked) [Compound 58, 4-(3-(1-(2-(cyclopropanecarboxamido)imidazo[1,2-b]pyridazin-6-yl)ethyl)-[1,2,4]triazolo[4,3-a]pyridin-6-yl)-2-fluoro-N-methylbenzamide]	< 30				
< 30	< 30	> 50000			CC(c1ccc2nc(NC(=O)C3CC3)cn2n1)c1nnc2ccc(-c3ccc(C#N)c(F)c3)cn12 (centres unmarked) [Compound 72, N-(6-(1-(6-(4-cyano-3-fluorophenyl)-[1,2,4]triazolo[4,3-a]pyridin-3-yl)ethyl)imidazo[1,2-b]pyridazin-2-yl)cyclopropanecarboxamide]	< 30				
60 to 100	30 to 59	8000 to 25000			CC(C)Oc1cccc(-c2ccc3nnc(C(F)(F)c4ccc5nc(NC(=O)C6CC6)cn5n4)n3c2)c1 [Compound 93, N-(6-(difluoro(6-(3-isopropoxyphenyl)-[1,2,4]triazolo[4,3-a]pyridin-3-yl)methyl)imidazo[1,2-b]pyridazin-2-yl)cyclopropanecarboxamide]	30 to 59				
< 30	100 to 249	> 50000			COc1cccc(-c2ccc3nnc(Sc4ccc5nc(NC(=O)C6CC6)cn5n4)n3c2)n1 [Compound 101, N-(6-(6-(6-methoxypyridin-2-yl)-[1,2,4]triazolo[4,3-a]pyridin-3-ylthio)imidazo[1,2-b]pyridazin-2-yl)cyclopropanecarboxamide]	30 to 59				
